Values after ≈ are worked out from the molar mass of the structure shown.
Key:
PC-3 cells [1] = assay: Block of mitosis, morphology by microscopy; assay type: cell-based, human; parameters: key to Block of Mitosis: +Block of mitosis was observed; −no mitotic blocking
Experimental: (§1) All cell lines, with the exception of human SP cells, a biphenotypic leukemic cell line (reference 10 & 11), were obtained from the American Tissue Culture Collection (Rockville, Md.) and were cultured under conditions recommended by the vendor. EL4 murine leukemia lymphoma (as suspension) and B16 mouse melanoma (as monolayer) cell lines were cultivated in RPMI-1640 medium supplemented with 10% fetal bovine serum (FBS), penicillin (250 μ/ml) and streptomycin (250 μml); MOT, a non-tumor proliferative myocardial cell line from rat and NIH 3T3, a non-malignant and proliferative fibroblast cell line from mouse were both cultured as monolayers in Dulbecco's Modified Eagle's Medium with 10% heat inactivated calf serum. CEM, a human acute T-cell leukemic cell line, was cultured as a suspension in Iscove's Dulbecco's Medium with 10% heat inactivated fetal calf serum and antibiotics. PC-3 cells, a human prostate cancer line, was cultured as monolayers in RPMI-1640 with 10% FBS. SP cells were cultured in Minimum Eagle's Medium plus 10% FBS. Human peripheral blood lymphocytes (PBL) were isolated from whole blood of healthy individuals by Ficoll-Hypaque gradient method. Isolated PBL were maintained in RPMI-1640 in the presence of 10% homologous plasma at 37° C. All cells were incubated at 37° C. in 5% C02. Cells in exponential growth were used.
(§2) Cell samples on slides were prepared by a Cytospin centrifuge (Shandon Southern Products Ltd, England) at 700 g for 5 min. The slides were air dried, fixed in methanol and stained with Giemsa (Harleco, N.J.) at room temperature for 15 min. Alterations of nuclei, membranes and morphological features were observed by light microscopy. Cells in mitotic phase were recognized by the appearance of their chromosomes dispersed in the cytoplasm, and by the disappearance of nuclear membrane. Apoptotic-cells were identified using previously defined criteria, i.e., shrinkage in cell size, chromatin condensation and fragmentation of the nucleus into discrete masses (references 2 & 3). Necrotic cells were differentiated from apoptotic cells by observing swollen cytoplasm and the disappearance of cell membrane prior to the destruction of the nucleus.

SP cells = assay: Block of mitosis, morphology by microscopy; assay type: cell-based, human; parameters: key to Block of Mitosis: +Block of mitosis was observed; −no mitotic blocking
Experimental: as §1, §2

PC-3 cells [2] = assay: Cytotoxicity, ID50 and ID90 (monolayer culture); assay type: cell-based; details: PC-3, Human Prostate Cancer, 48 hr
Experimental: as §1, with “Isolated PBL were maintained in RPMI-1640 in the presence of 10% homologous plasma at 37° C. All cells were incubated at 37° C. in 5% C02. Cells in exponential growth were used.” left out
(§3) The ID50 and ID90 was determined in duplicate in every set of experiments, and each experiment was repeated 3 times under identical conditions. […]

B16 mouse melanoma = assay: Cytotoxicity, ID50 and ID90 (monolayer culture); assay type: cell-based; details: B16, Murine melanoma, 48 hr
Experimental: as §1, with “Isolated PBL were maintained in RPMI-1640 in the presence of 10% homologous plasma at 37° C. All cells were incubated at 37° C. in 5% C02. Cells in exponential growth were used.” left out
as §3

With NC(=O)NC(=O)c1cccc(NC(=O)CBr)c1 [Compound 8, 3-Bromoacetoamido, benzoylurea] the “Block of Mitosis” value (PC-3 cells [1]; PC-3, Human Prostate Cancer, 37° C. for 48 hr) was “+”, the morphologic effect (PC-3 cells [1]; PC-3 human prostate cancer cells, 0.1 μg/ml, 24 hr at 37° C.) was “induced mitotic arrest” and the morphologic effect (SP cells; SP human lymphoid leukemic cells, 0.025 μg/ml, 24 hr at 37° C.) was “induced mitotic arrest”. For the same compound, the “Block of Mitosis” value (SP cells; SP, Human MDS, 37° C. for 48 hr, arrest = mitotic cells >50% vs controls) was “+”, the ID90 (PC-3 cells [2]) was 0.95 ± 0.17 µg/mL (≈ 3.17 µM) and the ID90 (B16 mouse melanoma) was 0.76 ± 0.09 µg/mL (≈ 2.53 µM).
